Here are results for 53 molecules from US9868746B2, “Substituted 5-aminothieno[2,3-C]pyridazine-6-carboxamide analogs as positive allosteric modulators of the muscarinic acetylcholine receptor M4” (Vanderbilt University, priority 2012, dated 2018).

For the assay, the target named is T1, mAChR M4 (Homo sapiens, UniProt P08173).
T1 construct: expressed in transfected cells; host or cells: CHO-K1 cells stably transfected with M4 cDNA and chimeric G-protein Gqi5
T1 sequence (P08173 1-479): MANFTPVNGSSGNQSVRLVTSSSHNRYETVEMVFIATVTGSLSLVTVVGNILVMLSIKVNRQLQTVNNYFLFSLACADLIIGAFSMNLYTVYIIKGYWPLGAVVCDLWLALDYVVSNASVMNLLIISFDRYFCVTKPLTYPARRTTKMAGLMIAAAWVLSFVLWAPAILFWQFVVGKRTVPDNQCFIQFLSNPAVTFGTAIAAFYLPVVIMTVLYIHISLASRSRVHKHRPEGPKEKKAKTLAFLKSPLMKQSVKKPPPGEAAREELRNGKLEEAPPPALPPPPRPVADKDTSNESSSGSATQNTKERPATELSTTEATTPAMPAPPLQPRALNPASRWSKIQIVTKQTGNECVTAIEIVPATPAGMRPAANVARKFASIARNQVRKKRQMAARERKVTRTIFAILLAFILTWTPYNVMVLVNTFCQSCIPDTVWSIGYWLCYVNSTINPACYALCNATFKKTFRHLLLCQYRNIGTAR
Nature of the assay: mAChR M4 cell-based functional assay (calcium mobilization, potentiation of EC20 acetylcholine response). The note with it: for Emax at 30 µM / Emax (%)*: % ACh maximum at 30 μM; for EC50: mAChR M4 cell-based functional assay, >10,000 estimated for low potency compounds without plateau, read-out: EC50.

Broadly, the Emax is the size of the effect at its maximum, as opposed to the concentration needed. In general, EC50 refers to the concentration giving half of the maximal effect. For `Cc1c(CN2CCOCC2)nnc2sc(C(=O)NCc3ccc(S(=O)(=O)C(F)(F)F)cc3)c(N)c12` [Example B324], the maximal response (Emax) at 30 µM was determined as 72% and the EC50 is 460 nM.
In the case of `Cc1nnc2sc(C(=O)N3CC(F)(c4cccc(-c5cnn(C)c5)c4)C3)c(N)c2c1C` [Example B325], the Emax at 30 µM worked out at 62% and the EC50 was 590 nM.
As for `Cc1nnc2sc(C(=O)N3CC(F)(c4ccc(-c5cncnc5)cc4)C3)c(N)c2c1C` [Example B326], the Emax at 30 µM stood at 50% and the EC50 is 390 nM.
Regarding `Cc1nnc2sc(C(=O)NCc3ccc(N4CCOCC4)cc3)c(N)c2c1C` [Example B327], the maximal response (Emax) at 30 µM was found to be 67% and the EC50 was 120 nM.
Take `Cc1nnc2sc(C(=O)NCc3ccc(CN(C)C)cc3)c(N)c2c1C` [Example B328]: the Emax at 30 µM was found to be 73% and the EC50 was 130 nM.
The like results for `Cc1nnc2sc(C(=O)NCc3ccc(S(C)(=O)=O)cn3)c(N)c2c1C` [Example B329] were, in that order, 74% and 780 nM.
For `Cc1nnc2sc(C(=O)NCc3ccc(S(C)(=O)=O)nc3)c(N)c2c1C` [Example B330], in that order: 68% and 150 nM.
On to `Cc1nnc2sc(C(=O)N3CC4CN(C(=O)c5ccc(F)cc5)CC4C3)c(N)c2c1C` (stereo not shown) [Example B331], for which the Emax at 30 µM is 58% and the EC50 is 3600 nM.
The like results for `Cc1nnc2sc(C(=O)N3CC4CN(C(=O)C5CC5)CC4C3)c(N)c2c1C` (stereo not shown) [Example B332] were, in that order, 58% and 1600 nM.
With `Cc1nnc2sc(C(=O)N3CC4CN(C(=O)C(C)(C)C)CC4C3)c(N)c2c1C` (stereo not shown) [Example B333], the Emax at 30 µM was found to be 53% and the 50% effective concentration (EC50) was greater than 10000 nM.
`COc1ccc(OC(=O)N2CC(NC(=O)c3sc4nnc(C)c(C)c4c3N)C2)cc1` [Example B334]: the Emax at 30 µM was found to be 69% and the EC50 was 13 nM.
For `Cc1nnc2sc(C(=O)NCc3ccc(S(=O)(=O)CCO[Si](c4ccccc4)(c4ccccc4)C(C)(C)C)cc3)c(N)c2c1C` [Example B335], the Emax at 30 µM came out at 74% and the EC50 is 890 nM.
Take `Cc1nnc2sc(C(=O)N3CC4CN(C(=O)Oc5ccccc5)CC4C3)c(N)c2c1C` (stereo not shown) [Example B336]: the Emax at 30 µM worked out at 49% and the EC50 is 980 nM.
For `Cc1nnc2sc(C(=O)NC3CN(C(=O)NCCCN4CCOCC4)C3)c(N)c2c1C` [Example B337], the Emax at 30 µM came to 55% and the EC50 is 600 nM.
For `Cc1nnc2sc(C(=O)NC3CN(C(=O)Nc4ccccc4F)C3)c(N)c2c1C` [Example B338], in that order: 62% and 44 nM.
For `Cc1nnc2sc(C(=O)NC3CCN(c4ccccc4F)C3)c(N)c2c1C` (stereo not shown) [Example B339], the maximum response (Emax) at 30 µM turned out to be 74% and the EC50 is 76 nM.
The like results for `Cc1nnc2sc(C(=O)NCCNC(=O)c3ccc(F)cc3)c(N)c2c1C` [Example B340] were, in that order, 38% and 370 nM.
Take `Cc1nnc2sc(C(=O)NC3CN(C(=O)OCCN(C)C)C3)c(N)c2c1C` [Example B341]: the Emax at 30 µM was found to be 74% and the EC50 was 120 nM.
Turning to `Cc1ccc(OC(=O)N2CC(NC(=O)c3sc4nnc(C)c(C)c4c3N)C2)cc1` [Example B342], the Emax at 30 µM is 67% and the EC50 is 9 nM.
Take `Cc1nnc2sc(C(=O)NCCN(C)C(=O)C3CC3)c(N)c2c1C` [Example B343]: the Emax at 30 µM worked out at 33% and the EC50 was greater than 10000 nM.
Regarding `Cc1nnc2sc(C(=O)NCCN(C)S(C)(=O)=O)c(N)c2c1C` [Example B344], the Emax at 30 µM stood at 41% and the EC50 is greater than 10000 nM.
`Cc1nnc2sc(C(=O)NCCNC(=O)OCc3ccccc3)c(N)c2c1C` [Example B345]: the Emax at 30 µM was 64% and the EC50 is 3600 nM.
In the case of `Cc1nnc2sc(C(=O)NC3CCN(c4ccc(F)cc4)C3)c(N)c2c1C` (stereo not shown) [Example B346], the Emax at 30 µM was found to be 79% and the EC50 was 170 nM.
As for `Cc1nnc2sc(C(=O)NCCNC(=O)c3ccccc3)c(N)c2c1C` [Example B347], the maximum response (Emax) at 30 µM amounted to 59% and the EC50 was 1500 nM.
The like results for `Cc1nnc2sc(C(=O)NC3CN(C(=O)Oc4ccc(C(C)C)cc4)C3)c(N)c2c1C` [Example B348] were, in that order, 72% and 54 nM.
Consider `Cc1nnc2sc(C(=O)NC3CN(C(=O)Nc4ccc(C(C)C)cc4)C3)c(N)c2c1C` [Example B349], for which the Emax at 30 µM worked out at 71% and the EC50 is 26 nM.
The like results for `Cc1nnc2sc(C(=O)NC3CN(C(=O)Nc4ccc(F)cc4)C3)c(N)c2c1C` [Example B351] were, in that order, 57% and 32 nM.
As to `Cc1nnc2sc(C(=O)NCCNS(C)(=O)=O)c(N)c2c1C` [Example B352], the Emax at 30 µM is 51% and the 50% effective concentration (EC50) is greater than 10000 nM.
`Cc1nnc2sc(C(=O)NCCNS(=O)(=O)c3ccc(F)cc3)c(N)c2c1C` [Example B353]: the Emax at 30 µM is 57% and the EC50 is 3400 nM.
As for `Cc1nnc2sc(C(=O)NCCNC(=O)Oc3ccccc3)c(N)c2c1C` [Example B354], the “Emax (%)*” value came to 73% and the EC50 was 2000 nM.
Turning to `Cc1nnc2sc(C(=O)NC3CN(C(=O)Oc4ccc(Cl)cc4)C3)c(N)c2c1C` [Example B355], the maximal effect (Emax) at 30 µM came to 58% and the EC50 is 16 nM.
The like results for `Cc1nnc2sc(C(=O)NC3CN(C(=O)Oc4ccc(C(F)(F)F)cc4)C3)c(N)c2c1C` [Example B356] were, in that order, 61% and 25 nM.
The like results for `Cc1nnc2sc(C(=O)NCCN(C)C(=O)c3ccc(F)cc3)c(N)c2c1C` [Example B357] were, in that order, 27% and greater than 10000 nM.
On to `Cc1nnc2sc(C(=O)NCCN(C)S(=O)(=O)c3ccc(F)cc3)c(N)c2c1C` [Example B358], for which the maximal response (Emax) at 30 µM was 49% and the concentration for a half-maximal effect (EC50) is 4500 nM.
For `Cc1nnc2sc(C(=O)NC3CN(C(=O)Oc4cccc(Cl)c4)C3)c(N)c2c1C` [Example B359], the Emax at 30 µM worked out at 55% and the EC50 was 16 nM.
The like results for `Cc1nnc2sc(C(=O)NCCNS(=O)(=O)c3ccccc3)c(N)c2c1C` [Example B360] were, in that order, 52% and 2500 nM.
In the case of `Cc1ccccc1OC(=O)N1CC(NC(=O)c2sc3nnc(C)c(C)c3c2N)C1` [Example B361], the maximal response (Emax) at 30 µM worked out at 76% and the concentration for a half-maximal effect (EC50) is 11 nM.
Regarding `Cc1nnc2sc(C(=O)NC3CN(C(=O)Nc4ccccc4)C3)c(N)c2c1C` [Example B362], the Emax at 30 µM is 64% and the EC50 is 18 nM.
In the case of `Cc1nnc2sc(C(=O)NC3CN(C(=O)Nc4ccc(OC(F)F)cc4)C3)c(N)c2c1C` [Example B363], the Emax at 30 µM is 74% and the EC50 was 27 nM.
In the case of `Cc1nnc2sc(C(=O)NCCNC(=O)c3ccncc3)c(N)c2c1C` [Example B364], the Emax at 30 µM turned out to be 49% and the EC50 was 3900 nM.
The like results for `Cc1cccc(OC(=O)N2CC(NC(=O)c3sc4nnc(C)c(C)c4c3N)C2)c1` [Example B365] were, in that order, 58% and 7.9 nM.
Take `CC(=O)NCCNC(=O)c1sc2nnc(C)c(C)c2c1N` [Example B366]: the maximal response (Emax) at 30 µM amounted to 32% and the EC50 is greater than 10000 nM.
For `Cc1nnc2sc(C(=O)NCCNC(=O)C3CC3)c(N)c2c1C` [Example B367], in that order: 52% and greater than 10000 nM.
Consider `COc1cccc(OC(=O)N2CC(NC(=O)c3sc4nnc(C)c(C)c4c3N)C2)c1` [Example B368], for which the maximal response (Emax) at 30 µM stood at 69% and the EC50 was 12 nM.
Take `Cc1nnc2sc(C(=O)NCCN(C)C(=O)c3ccccc3)c(N)c2c1C` [Example B369]: the maximal response (Emax) at 30 µM was determined as 25% and the EC50 is greater than 10000 nM.
`Cc1nnc2sc(C(=O)NC3CN(C(=O)Oc4cc(F)cc(F)c4)C3)c(N)c2c1C` [Example B370]: the Emax at 30 µM is 61% and the EC50 is 10 nM.
For `COc1ccc(NC(=O)N2CC(NC(=O)c3sc4nnc(C)c(C)c4c3N)C2)cc1` [Example B371], in that order: 61% and 48 nM.
As to `COc1ccc(C#CCNC(=O)c2sc3nnc(C)c(C)c3c2N)cc1` [Example B373], the maximal effect (Emax) at 30 µM is 66% and the EC50 is 170 nM.
On to `Cc1nnc2sc(C(=O)NCCNC(=O)Oc3ccccc3)c(N)c2c1C` [Example B374], for which the “Emax (%)*” value was determined as 33% and the EC50 was greater than 10000 nM.
Regarding `Cc1nnc2sc(C(=O)NCCN(C)S(=O)(=O)c3ccccc3)c(N)c2c1C` [Example B375], the Emax at 30 µM is 51% and the EC50 was 4000 nM.
As for `COc1ccccc1OC(=O)N1CC(NC(=O)c2sc3nnc(C)c(C)c3c2N)C1` [Example B376], the Emax at 30 µM was found to be 59% and the EC50 was 17 nM.
Take `Cc1nnc2sc(C(=O)N3CC(F)(c4ccc(S(=O)(=O)C(F)F)cc4)C3)c(N)c2c1C` [Example B377]: the Emax at 30 µM was 50% and the EC50 is 72 nM.
For `Cc1nnc2sc(C(=O)N3CC(F)(c4ccc(S(=O)(=O)C(F)(F)F)cc4)C3)c(N)c2c1C` [Example B378], the Emax at 30 µM stood at 46% and the EC50 is 4200 nM.
